Biological target: T1, human DGAT2 (hDGAT2) (Homo sapiens, UniProt Q96PD7)
T1 construct: made in house; host or cells: Sf-9 insect cells (baculovirus), membrane fraction
T1 sequence (Q96PD7 1-388): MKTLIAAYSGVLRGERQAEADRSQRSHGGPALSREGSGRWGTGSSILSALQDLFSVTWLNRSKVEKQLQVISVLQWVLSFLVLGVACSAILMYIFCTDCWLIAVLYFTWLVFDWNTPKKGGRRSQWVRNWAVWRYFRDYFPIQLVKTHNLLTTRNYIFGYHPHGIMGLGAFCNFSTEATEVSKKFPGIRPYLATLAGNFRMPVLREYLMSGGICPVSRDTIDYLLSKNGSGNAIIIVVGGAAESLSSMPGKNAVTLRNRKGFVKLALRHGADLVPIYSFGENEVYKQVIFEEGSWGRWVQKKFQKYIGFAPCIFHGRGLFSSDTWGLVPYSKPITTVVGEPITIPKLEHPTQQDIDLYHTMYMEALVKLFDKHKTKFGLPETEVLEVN
Experiment: DGAT2 Enzymatic Activity Assay
Format: biochemical
Settings: membrane prep of Sf-9 cells expressing hDGAT2; 13C18-triolein product by LC/MS/MS; 25 μM diolein, 5 μM 13C oleoyl-CoA, rt
Experimental: Sf-9 insect cells were maintained in Grace's insect cell culture medium with 10% heated-inactivated fetal bovine serum, 1% Pluronic F-68 and 0.14 μg/ml Kanamycine sulfate at 27° C. in a shaker incubator. After infection with untagged baculovirus expressing human DGAT2 (hDGAT2) at multiplicity of infection (MOI) 3 for 48 hours, cells were harvested. Cell pellets were suspended in buffer containing 10 mM Tris-HCl pH 7.5, 1 mM EDTA, 250 mM sucrose and Complete Protease Inhibitor Cocktail (Sigma Aldrich), and sonicated on ice. Cell debris were removed by centrifugation at 2000×g for 15 minutes. Membrane fractions were isolated by ultracentrifugation (100,000×g), resuspended in the same buffer, and frozen (−80° C.) for later use. The protein concentration was determined with the Pierce™ BCA Protein Assay Kit (Thermo Fisher Scientific).
LC/MS/MS analyses were performed using Thermal Fisher's LX4-TSQ Vantage system. This system consists of an Agilent binary high-performance liquid chromatography (HPLC) pump and a TSQ Vantage triple quadrupole MS/MS instrument. For each sample, 2 μL samples from the top organic layer of in-plate liquid-liquid extraction were injected onto a Thermo Betabasic C4 column (2.1 mm×20 mm, 5 μm particle size). The samples were then eluted using the following conditions; mobile phase: Isopropanol:acetonitrile/10 mM ammonium formate=50/35/15 (v/v/v), flow rate: 0.8 mL/min, temperature: 25° C. Data was acquired in positive mode using a heated electrospray ionization (HESI) interface. The operational parameters for the TSQ Vantage MS/MS instrument were a spray voltage of 3000 V, capillary temperature of 280° C., vaporizer temperature 400° C., sheath gas 45 arbitrary unit. Aux gas 10 arbitrary units. […] The peak area was integrated by Xcalibur Quan software. The ratio between the ^13C18 triolein generated in the reaction and spiked in internal standard ^13C21-triolein was used to generate percentage inhibition and IC50 values. Compound percentage inhibition was calculated by the following formula: Inhibition %=1−[(compound response−low control)/(high control−low control)]×100%.
DGAT2 activity was determined by measuring the amount of enzymatic product ^13C18-triolein (^13C-1,2,3-Tri(cis-9-octadecenoyl)glycerol) using the membrane prep mentioned above. The assay was carried out in ABgene 384-well assay plates in a final volume of 25 μL at rt.

IC50 [nM] | Compound
17.3 | Cc1cc2nc(C(=O)NC3(C)CCS(=O)(=O)CC3)cn2cc1Oc1nccnc1OCC(F)(F)F [Example 20, 7-methyl-N-(4-methyl-1,1-dioxidotetrahydro-2H-thiopyran-4-yl)-6-((3-(2,2,2-trifluoroethoxy)pyrazin-2-yl)oxy)imidazo[1,2-a]pyridine-2-carboxamide]
1.8 | CC1(NC(=O)c2cn3cc(Oc4ncc(F)cc4OCC(F)(F)F)c(F)cc3n2)CCS(=O)(=O)CC1 [Example 21, 7-fluoro-6-[[5-fluoro-3-(2,2,2-trifluoroethoxy)-2-pyridyl]oxy]-N-(4-methyl-1,1-dioxo-thian-4-yl)imidazo[1,2-a]pyridine-2-carboxamide]
3.5 | CCOc1cccnc1Oc1ccc2nc(C(=O)N[C@H]3CCCC[C@@H]3O)cn2c1 [Example 22, 6-[(3-ethoxy-2-pyridyl)oxy]-N-[(1S,2S)-2-hydroxycyclohexyl]imidazo [1,2-a]pyridine-2-carboxamide]
31 | CCOc1cccnc1Oc1ccc2nc(C(=O)NC3(C)CC(F)(F)C3)cn2c1 [Example 23, N-(3,3-difluoro-1-methyl-cyclobutyl)-6-[(3-ethoxy-2-pyridyl)oxy]imidazo[1,2-a]pyridine-2-carboxamide]
117 | Cc1cc(Oc2ncccc2OCC(F)(F)F)cn2cc(C(=O)NC3(C)CCS(=O)(=O)CC3)nc12 [Example 24, 8-methyl-N-(4-methyl-1,1-dioxo-thian-4-yl)-6-[[3-(2,2,2-trifluoroethoxy)-2-pyridyl]oxy]imidazo[1,2-a]pyridine-2-carboxamide]
3.8 | Cc1cc2nc(C(=O)NC3(C)CC(F)(F)C3)cn2cc1Oc1ncc(F)cc1OCC(F)F [Example 25, 6-[[3-(2,2-difluoroethoxy)-5-fluoro-2-pyridyl]oxy]-N-(3,3-difluoro-1-methyl-cyclobutyl)-7-methyl-imidazo[1,2-a]pyridine-2-carboxamide]
10 | CCOc1cccnc1Oc1ccc2nc(C(=O)N[C@H]3CC[C@](OC)(C(F)(F)F)CC3)cn2c1 [Example 26, 6-[(3-ethoxy-2-pyridyl)oxy]-N-[4-methoxy-4-(trifluoromethyl)cyclohexyl] imidazo[1,2-a]pyridine-2-carboxamide]
59 | Cc1c(Oc2ncc(F)cc2OCC(F)F)ccc2nc(C(=O)NC3(C)CC(F)(F)C3)cn12 [Example 28, 6-[[3-(2,2-difluoroethoxy)-5-fluoro-2-pyridyl]oxy]-N-(3,3-difluoro-1-methyl-cyclobutyl)-5-methyl-imidazo[1,2-a]pyridine-2-carboxamide]
13 | Cc1cc2nc(C(=O)NC3(C)CCS(=O)(=O)CC3)cn2cc1Oc1ncc(F)cc1OCC(F)(F)F [Example 29, 6-[[5-fluoro-3-(2,2,2-trifluoroethoxy)-2-pyridyl]oxy]-7-methyl-N-(4-methyl-1,1-dioxo-thian-4-yl)imidazo[1,2-a]pyridine-2-carboxamide]

The next lines start with the compound.

Compound | IC50 [nM]
CC1(NC(=O)c2cn3cc(Oc4ncc(Cl)cc4OCC(F)(F)F)ccc3n2)CS(=O)(=O)C1 [Example 1, 6-[[5-Chloro-3-(2,2,2-trifluoroethoxy)-2-pyridyl]oxy]-N-(3-methyl-1,1-dioxo-thietan-3-yl)imidazo[1,2-a]pyridine-2-carboxamide] | 5
CCOc1cccnc1Oc1ccc2nc(C(=O)NC3(C)CCC(F)(F)CC3)cn2c1 [Example 3, N-(4,4-difluoro-1-methyl-cyclohexyl)-6-[(3-ethoxy-2-pyridyl)oxy]imidazo[1,2-a]pyridine-2-carboxamide] | 5.8
O=C(NC1(CC(F)(F)F)CCS(=O)(=O)CC1)c1cn2cc(Oc3ncc(Cl)cc3OCC(F)(F)F)ccc2n1 [Example 5, 6-[[5-chloro-3-(2,2,2-trifluoroethoxy)-2-pyridyl]oxy]-N-[1,1-dioxo-4-(2,2,2-trifluoroethyl)thian-4-yl]imidazo[1,2-a]pyridine-2-carboxamide] | 36
CC1(NC(=O)c2cn3cc(Oc4ncccc4OCC(F)(F)F)cc(F)c3n2)CCS(=O)(=O)CC1 [Example 7, 8-fluoro-N-(4-methyl-1,1-dioxo-thian-4-yl)-6-[[3-(2,2,2-trifluoroethoxy)-2-pyridyl]oxy]imidazo[1,2-a]pyridine-2-carboxamide] | 4.7
CCOc1cc(Cl)cnc1Oc1ccc2nc(C(=O)NC3(C)CCS(=O)(=O)CC3)cn2c1C [Example 8, 6-[(5-chloro-3-ethoxy-2-pyridyl)oxy]-5-methyl-N-(4-methyl-1,1-dioxo-thian-4-yl)imidazo[1,2-a]pyridine-2-carboxamide] | 1.4
Cc1cc2nc(C(=O)NC3(C)CCS(=O)(=O)CC3)cn2cc1Oc1ncc(Cl)cc1OCC1(F)CC1 [Example 10, 6-[[5-chloro-3-[(1-fluorocyclopropyl)methoxy]-2-pyridyl]oxy]-7-methyl-N-(4-methyl-1,1-dioxo-thian-4-yl)imidazo[1,2-a]pyridine-2-carboxamide] | 13
CC1(NC(=O)c2cn3cc(Oc4ncc(Cl)cc4OCC(F)F)ccc3n2)CS(=O)(=O)C1 [Example 11, 6-[[5-chloro-3-(2,2-difluoroethoxy)-2-pyridyl]oxy]-N-(3-methyl-1,1-dioxo-thietan-3-yl)imidazo[1,2-a]pyridine-2-carboxamide] | 23
Cc1cc2nc(C(=O)NC3(CC(F)(F)F)CCS(=O)(=O)CC3)cn2cc1Oc1ncc(Cl)cc1OCC(F)(F)F [Example 12, 6-[[5-chloro-3-(2,2,2-trifluoroethoxy)-2-pyridyl]oxy]-N-[1,1-dioxo-4-(2,2,2-trifluoroethyl)thian-4-yl]-7-methyl-imidazo[1,2-a]pyridine-2-carboxamide] | 5.6
CC1(NC(=O)c2cn3cc(Oc4ncc(Cl)cc4OCC(F)(F)F)c(Cl)cc3n2)CCS(=O)(=O)CC1 [Example 13, 7-chloro-6-[5-chloro-3-(2,2,2-trifluoroethoxy)pyridine-2-yl]oxy-N-(4-methyl-1,1-dioxo-thian-4-yl)imidazo[1,2-a]pyridine-2-carboxamide] | 4.3
CC1(NC(=O)c2cn3cc(Oc4ncccc4OCC(F)(F)F)ccc3n2)CCS(=O)(=O)CC1 [Example 14, N-(4-methyl-1,1-dioxo-thian-4-yl)-6-[[3-(2,2,2-trifluoroethoxy)-2-pyridyl]oxy]imidazo[1,2-a]pyridine-2-carboxamide] | 5.3
Cc1c(Oc2ncc(Cl)cc2OCC(F)(F)F)cc(F)c2nc(C(=O)NC3(C)CCS(=O)(=O)CC3)cn12 [Example 15, 6-[[5-chloro-3-(2,2,2-trifluoroethoxy)-2-pyridyl]oxy]-8-fluoro-5-methyl-N-(4-methyl-1,1-dioxo-thian-4-yl)imidazo[1,2-a]pyridine-2-carboxamide] | 11
O=C(N[C@H]1CCCC(F)(F)[C@@H]1O)c1cn2cc(Oc3ncc(F)cc3OCC(F)(F)F)ccc2n1 [Example 16, N-[(1S,2R)-3,3-difluoro-2-hydroxy-cyclohexyl]-6-[[5-fluoro-3-(2,2,2-trifluoroethoxy)-2-pyridyl]oxy]imidazo[1,2-a]pyridine-2-carboxamide] | 4.5
Cc1c(Oc2ncc(Cl)cc2OCC(F)(F)F)ccc2nc(C(=O)NC3(C)CCS(=O)(=O)CC3)cn12 [Example 17] | 1.4
CC(F)(F)COc1cc(Cl)cnc1Oc1ccc2nc(C(=O)NC3(C)CCS(=O)(=O)CC3)cn2c1 [Example 18, 6-[[5-chloro-3-(2,2-difluoropropoxy)-2-pyridyl]oxy]-N-(4-methyl-1,1-dioxo-thian-4-yl)imidazo[1,2-a]pyridine-2-carboxamide] | 2
Cc1cc2nc(C(=O)NC3(C)CCS(=O)(=O)CC3)cn2cc1Oc1ncc(F)cc1OCC(C)(F)F [Example 19, 6-[[3-(2,2-difluoropropoxy)-5-fluoro-2-pyridyl]oxy]-7-methyl-N-(4-methyl-1,1-dioxo-thian-4-yl)imidazo[1,2-a]pyridine-2-carboxamide] | 7.7

Reference: patent publication US20260176267A1, “PREPARATION OF IMIDAZOPYRIDINE AND IMIDAZOPYRIDAZINE DERIVATIVES AS NOVEL DIACYLGLYCERIDE O-ACYLTRANSFERASE 2 INHIBITORS” (Merck Sharp & Dohme LLC, priority 2022, published 2026)
